For assay [1], the target named is T1, JAK1 (Homo sapiens, UniProt P23458).
T1 construct: endogenous, MDA-MB-231 cells
The experiment in a line: competition of Alk-Xa pull-down in cells. It counts as cell-based.

Assay [2] concerns the target T2, Tyk2 (Homo sapiens, UniProt P29597).
T2 construct: endogenous, MDA-MB-231 cells
The experiment in a line: competition of Alk-Xa pull-down in cells. It is filed as cell-based.

Assay [3] concerns the target T3, IKKβ (Homo sapiens, UniProt O14920).
T3 construct: gene IKBKB; IKKβ-FLAG immunoprecipitated from HEK293 cells
T3 sequence (O14920 1-756): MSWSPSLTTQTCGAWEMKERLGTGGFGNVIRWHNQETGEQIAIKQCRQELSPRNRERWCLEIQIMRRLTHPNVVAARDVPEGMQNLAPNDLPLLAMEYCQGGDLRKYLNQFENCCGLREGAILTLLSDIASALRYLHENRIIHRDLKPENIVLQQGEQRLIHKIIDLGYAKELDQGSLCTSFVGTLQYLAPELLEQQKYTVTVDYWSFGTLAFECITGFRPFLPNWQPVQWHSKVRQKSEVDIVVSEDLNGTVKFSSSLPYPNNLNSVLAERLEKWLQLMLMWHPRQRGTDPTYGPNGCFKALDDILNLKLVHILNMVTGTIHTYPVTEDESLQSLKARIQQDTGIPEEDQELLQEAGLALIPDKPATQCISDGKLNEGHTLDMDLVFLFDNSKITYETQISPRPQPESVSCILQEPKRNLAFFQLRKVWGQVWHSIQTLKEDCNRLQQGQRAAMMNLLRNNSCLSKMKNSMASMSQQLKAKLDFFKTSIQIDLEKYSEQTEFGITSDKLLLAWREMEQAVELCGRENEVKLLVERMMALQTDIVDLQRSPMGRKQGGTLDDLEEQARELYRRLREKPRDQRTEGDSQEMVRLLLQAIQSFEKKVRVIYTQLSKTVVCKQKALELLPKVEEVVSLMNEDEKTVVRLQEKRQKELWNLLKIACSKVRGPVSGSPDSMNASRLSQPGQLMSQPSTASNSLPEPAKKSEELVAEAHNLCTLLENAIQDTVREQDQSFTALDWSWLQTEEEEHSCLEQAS
Description: in vitro kinase assay with immunoprecipitated IKKβ; adducts confirmed by LC-MS/MS. It is filed as biochemical.

The target in assay [4] is T4, JAK2 (Homo sapiens, UniProt O60674).
T4 construct: JAK2-FLAG immunoprecipitated from HEK293 cells
The experiment in a line: in vitro kinase assay with immunoprecipitated JAK2; adduct confirmed by LC-MS/MS. It counts as biochemical.

Assay [5] concerns the target T5, IKKα (Homo sapiens, UniProt O15111).
T5 construct: gene CHUK; endogenous, MDA-MB-231 cells
T5 sequence (O15111 1-745): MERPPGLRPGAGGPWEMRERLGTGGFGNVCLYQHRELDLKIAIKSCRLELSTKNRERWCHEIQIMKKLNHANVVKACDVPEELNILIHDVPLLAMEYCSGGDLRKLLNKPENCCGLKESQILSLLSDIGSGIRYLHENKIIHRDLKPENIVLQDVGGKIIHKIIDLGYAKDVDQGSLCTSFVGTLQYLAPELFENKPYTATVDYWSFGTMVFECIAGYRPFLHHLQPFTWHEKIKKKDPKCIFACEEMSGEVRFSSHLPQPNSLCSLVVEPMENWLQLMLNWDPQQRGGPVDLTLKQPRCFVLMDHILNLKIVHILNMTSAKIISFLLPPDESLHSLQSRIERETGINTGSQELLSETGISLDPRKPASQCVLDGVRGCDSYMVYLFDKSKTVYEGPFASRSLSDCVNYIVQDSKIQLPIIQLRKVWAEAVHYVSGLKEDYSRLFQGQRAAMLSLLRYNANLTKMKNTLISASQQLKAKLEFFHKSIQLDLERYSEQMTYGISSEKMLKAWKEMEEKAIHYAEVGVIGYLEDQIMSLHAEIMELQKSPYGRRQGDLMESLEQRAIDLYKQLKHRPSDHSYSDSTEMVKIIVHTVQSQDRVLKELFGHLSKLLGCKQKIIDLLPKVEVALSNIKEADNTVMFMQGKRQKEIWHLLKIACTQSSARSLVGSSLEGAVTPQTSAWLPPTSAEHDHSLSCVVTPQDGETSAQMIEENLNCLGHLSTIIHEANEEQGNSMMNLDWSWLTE
Description: competition of Alk-Xa pull-down in cells. It counts as cell-based.

For assay [6], the target named is T3, IKKβ. The experiment in a line: in-gel fluorescence after click labelling of immunoprecipitated protein. It is filed as binding.
For assay [7], the target named is T1, JAK1. The experiment in a line: click-chemistry pull-down from treated cells, competed by xanthatin. It is filed as cell-based.
Assay [8] concerns the target T5, IKKα. The assay is described as above. It counts as cell-based.
Assay [9] concerns the target T4, JAK2. The experiment in a line: in-gel fluorescence after click labelling of immunoprecipitated protein. It is filed as binding.
Assay [10] concerns the target T2, Tyk2. The experiment in a line: click-chemistry pull-down from treated cells, competed by xanthatin. It is filed as cell-based.

Molecules are shown by their SMILES.

Usually IC50 stands for the concentration at which inhibition is half-maximal. High values mean a need for much substance, low ones inhibition by little substance.

T4 sequence (O60674 whole entry): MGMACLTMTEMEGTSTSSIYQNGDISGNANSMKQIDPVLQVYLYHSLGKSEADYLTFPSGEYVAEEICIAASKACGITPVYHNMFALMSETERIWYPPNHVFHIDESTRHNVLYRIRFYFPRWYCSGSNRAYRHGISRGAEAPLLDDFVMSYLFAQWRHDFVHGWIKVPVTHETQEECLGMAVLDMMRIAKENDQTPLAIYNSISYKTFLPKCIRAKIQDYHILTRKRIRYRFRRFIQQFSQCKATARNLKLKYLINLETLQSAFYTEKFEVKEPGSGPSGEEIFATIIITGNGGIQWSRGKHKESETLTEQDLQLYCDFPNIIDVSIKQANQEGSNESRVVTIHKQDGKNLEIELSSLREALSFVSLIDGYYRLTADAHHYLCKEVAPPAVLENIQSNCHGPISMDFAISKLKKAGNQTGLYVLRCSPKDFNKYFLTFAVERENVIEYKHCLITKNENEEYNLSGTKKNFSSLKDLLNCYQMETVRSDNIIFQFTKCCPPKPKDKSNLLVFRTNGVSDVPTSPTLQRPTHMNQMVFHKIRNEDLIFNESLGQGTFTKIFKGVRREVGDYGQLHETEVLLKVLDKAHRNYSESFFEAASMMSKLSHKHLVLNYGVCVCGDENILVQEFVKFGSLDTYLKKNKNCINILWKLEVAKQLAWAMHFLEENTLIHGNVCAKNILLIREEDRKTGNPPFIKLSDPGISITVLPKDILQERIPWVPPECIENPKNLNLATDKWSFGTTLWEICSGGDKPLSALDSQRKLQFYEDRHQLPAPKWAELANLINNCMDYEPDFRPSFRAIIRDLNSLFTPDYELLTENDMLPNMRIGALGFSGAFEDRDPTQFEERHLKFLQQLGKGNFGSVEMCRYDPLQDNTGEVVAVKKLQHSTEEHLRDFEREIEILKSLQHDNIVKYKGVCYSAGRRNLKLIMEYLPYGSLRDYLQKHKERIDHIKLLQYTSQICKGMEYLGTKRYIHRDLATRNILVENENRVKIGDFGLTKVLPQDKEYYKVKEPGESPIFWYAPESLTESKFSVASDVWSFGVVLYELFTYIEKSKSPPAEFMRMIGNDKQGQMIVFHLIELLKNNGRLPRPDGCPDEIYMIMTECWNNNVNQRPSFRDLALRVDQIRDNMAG
T1 sequence (P23458 whole entry): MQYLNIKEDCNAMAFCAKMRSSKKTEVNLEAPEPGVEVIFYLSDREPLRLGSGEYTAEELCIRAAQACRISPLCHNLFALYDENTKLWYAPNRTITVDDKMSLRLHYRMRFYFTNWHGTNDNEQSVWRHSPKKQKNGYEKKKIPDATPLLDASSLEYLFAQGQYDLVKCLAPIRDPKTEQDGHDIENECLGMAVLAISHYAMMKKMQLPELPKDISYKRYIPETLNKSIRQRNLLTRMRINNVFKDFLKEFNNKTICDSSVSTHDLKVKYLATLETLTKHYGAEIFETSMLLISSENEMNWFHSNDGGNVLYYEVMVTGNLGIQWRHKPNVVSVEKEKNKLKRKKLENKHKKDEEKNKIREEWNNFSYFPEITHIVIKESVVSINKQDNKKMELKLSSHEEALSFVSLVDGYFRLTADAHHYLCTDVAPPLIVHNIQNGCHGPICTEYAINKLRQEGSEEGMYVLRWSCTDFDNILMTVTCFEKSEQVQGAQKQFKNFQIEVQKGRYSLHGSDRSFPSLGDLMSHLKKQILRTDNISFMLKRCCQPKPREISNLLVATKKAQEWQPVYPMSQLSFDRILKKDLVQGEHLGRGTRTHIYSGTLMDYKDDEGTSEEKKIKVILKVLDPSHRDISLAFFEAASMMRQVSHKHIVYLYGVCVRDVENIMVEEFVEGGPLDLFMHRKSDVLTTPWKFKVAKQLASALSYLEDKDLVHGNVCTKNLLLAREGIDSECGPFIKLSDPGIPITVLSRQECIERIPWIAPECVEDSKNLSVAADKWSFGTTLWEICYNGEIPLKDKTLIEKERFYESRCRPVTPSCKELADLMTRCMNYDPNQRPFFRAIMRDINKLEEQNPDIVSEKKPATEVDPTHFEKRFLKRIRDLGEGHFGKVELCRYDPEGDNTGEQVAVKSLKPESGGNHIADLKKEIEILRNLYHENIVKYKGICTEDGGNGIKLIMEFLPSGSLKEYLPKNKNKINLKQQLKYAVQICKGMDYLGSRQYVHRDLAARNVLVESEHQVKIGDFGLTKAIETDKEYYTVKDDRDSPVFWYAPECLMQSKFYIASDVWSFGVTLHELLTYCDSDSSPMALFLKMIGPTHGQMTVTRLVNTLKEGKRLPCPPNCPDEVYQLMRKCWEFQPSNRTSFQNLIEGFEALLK
T2 sequence (P29597 whole entry): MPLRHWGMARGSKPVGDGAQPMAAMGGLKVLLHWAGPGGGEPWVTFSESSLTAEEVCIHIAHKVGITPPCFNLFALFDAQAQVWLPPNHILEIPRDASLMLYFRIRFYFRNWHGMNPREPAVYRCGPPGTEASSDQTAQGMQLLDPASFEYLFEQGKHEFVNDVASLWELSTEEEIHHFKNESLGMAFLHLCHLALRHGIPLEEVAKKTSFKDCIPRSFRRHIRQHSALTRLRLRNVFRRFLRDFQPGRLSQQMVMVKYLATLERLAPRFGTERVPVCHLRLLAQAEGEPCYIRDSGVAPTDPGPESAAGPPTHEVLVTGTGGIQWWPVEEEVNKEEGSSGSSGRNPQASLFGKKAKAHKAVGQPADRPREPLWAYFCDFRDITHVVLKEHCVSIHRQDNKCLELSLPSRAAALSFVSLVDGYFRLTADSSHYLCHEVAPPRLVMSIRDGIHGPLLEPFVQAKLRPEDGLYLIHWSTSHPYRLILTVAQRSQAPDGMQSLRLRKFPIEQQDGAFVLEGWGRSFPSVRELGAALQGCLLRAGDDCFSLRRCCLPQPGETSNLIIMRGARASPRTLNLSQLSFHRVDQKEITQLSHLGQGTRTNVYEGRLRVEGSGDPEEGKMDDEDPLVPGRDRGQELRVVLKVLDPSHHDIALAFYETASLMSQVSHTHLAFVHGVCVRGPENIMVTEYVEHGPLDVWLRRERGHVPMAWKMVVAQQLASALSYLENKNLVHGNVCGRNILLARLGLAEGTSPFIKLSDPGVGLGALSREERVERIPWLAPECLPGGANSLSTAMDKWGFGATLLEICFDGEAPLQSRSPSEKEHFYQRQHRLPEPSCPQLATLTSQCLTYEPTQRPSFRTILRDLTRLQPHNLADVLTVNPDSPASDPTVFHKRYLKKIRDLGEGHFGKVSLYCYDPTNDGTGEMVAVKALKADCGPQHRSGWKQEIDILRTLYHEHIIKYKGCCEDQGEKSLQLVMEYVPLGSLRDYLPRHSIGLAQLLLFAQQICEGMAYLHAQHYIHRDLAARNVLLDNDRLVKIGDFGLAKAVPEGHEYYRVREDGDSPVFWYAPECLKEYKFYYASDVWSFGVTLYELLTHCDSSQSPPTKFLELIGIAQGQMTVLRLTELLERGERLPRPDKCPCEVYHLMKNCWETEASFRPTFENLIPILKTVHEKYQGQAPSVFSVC

For `C=C1C(=O)O[C@H]2C[C@H](C)C(/C=C/C(C)=O)=CC[C@H]12` [Xa, xanthatin], the “competition of Alk-Xa pull-down in cells” value at JAK1 [1], at Tyk2 [2] and on IKKα [5] was “the interactions could be competed away by excessive unlabelled xanthatin” throughout. Further, the IC50 on IKKβ [3] turned out to be 11.3 µM; against JAK2 [4] it was 4.08 µM.
Turning to `C#CCNC(=O)/C=C/C1=CC[C@@H]2C(=C)C(=O)O[C@H]2C[C@@H]1C` [Alk-Xa, Alk‐Xa], the “in-gel fluorescence after click labelling of immunoprecipitated protein” value at IKKβ [6] is “fluorescence intensity of JAK2 and IKKβ was proportional to the dosage of Alk‐Xa, indicating that Alk‐Xa covalently bound”; at JAK2 [9], “fluorescence intensity of JAK2 and IKKβ was proportional to the dosage of Alk‐Xa, indicating that Alk‐Xa covalently bound”. In addition, the “click-chemistry pull-down from treated cells, competed by xanthatin” value is “JAK1, JAK2, Tyk2, IKKα and IKKβ were pulled down with the Alk‐Xa” at JAK1 [7]; “JAK1, JAK2, Tyk2, IKKα and IKKβ were pulled down with the Alk‐Xa” at IKKα [8]; “JAK1, JAK2, Tyk2, IKKα and IKKβ were pulled down with the Alk‐Xa” at Tyk2 [10].

Source of the values: publication PMC6533482, “Xanthatin inhibits STAT3 and NF‐κB signalling by covalently binding to JAK and IKK kinases” (Journal of Cellular and Molecular Medicine, 2019).
